Measured values taken from patent US10463709B2, “Short synthetic peptide for treating diseases and/or conditions related to angiogenesis” (MacKay Memorial Hospital, priority 2015, dated 2019).
Values joined by “and” are separate entries in the source; they are usually repeats but may differ in a detail not shown here. Identical values can stand only once. Square brackets hold non-standard residues; d marks the D form. Ends that are not written are not given here.

Key:
Type in all cases: cell-based
RPMI8226 cells = assay: MTT assay, VEGF-induced proliferation of RPMI8226 cells; conditions: for biological activity of the analogue relative to the 7-mer (summary statement of the description): summary of Example 1 findings; for effect on VEGF-induced proliferation of RPMI8226 cells: VEGF 50 ng/ml, 25 μM peptide, 24 hrs, MTT
Description: The multiple myeloma line RPMI8226 was cultivated in complex medium (RPMI1640) supplemented with 10% (vol/vol) heat-inactivated fetal calf serum (Invitrogen), 50 μg/mL penicillin, 50 μg/mL streptomycin, and 2 mM L-glutamine at 37° C. in a 5% CO2 atmosphere. RPMI8226 cells were cultured in serum-free RPMI1640 medium for 24 hrs, and then cells were seeded in 48-well culture plates (3×10^5 cells/well) and continued to culture in 0.5 ml fresh serum-free RPMI1640 medium containing 25 μM peptide for another 24 hrs. The cell viability was determined by the MTT assay. Briefly, 50 μL of MTT stock solution (50 μL) (5 mg MTT dissolved in 1 ml of sterile PBS) was added to each culture well. In addition, 50 μL of the MTT stock solution was added in 500 μL of medium as the negative control. The culture plate was incubated at 37° C. for 4 hours. Aliquots (450 μl) from each sample were taken to a new well of 48-well culture plate, adding 100 μL DMSO, mixing thoroughly using the pipette and reacted at 37° C. for 20 min and read absorbance at 570 nm. These synthesized peptides were then subject to MTT assay, in which vascular endothelial growth factor (VEGF) was used as a stimulant to induce cell proliferation. Results are depicted in FIGS. 1 to 4.

HUVECs [1] = assay: VEGF-induced HUVEC proliferation assay; conditions: vs untreated HUVECs
Description: HUVECs (1×10^5 cells per well of 6-well plate) were grown in Medium 200 with Low Serum Growth Supplement (LSGS Kit, supplement contains 1.9% FBS, 3 ng/ml bFGF, 10 μg/ml heparin, 1 μg/ml hydrocortisone, and 10 ng/ml EGF). Culture plates were coated with 2% gelatin. Cells (passages 4-8) were cultured at 37° C. in a humidified atmosphere of 5% CO2. […]
HUVECs (1×10^5 cells per well of 6-well plate) in Medium 200 supplemented with LSGS Kit were allowed to grow onto 6-well plates coated with 2% gelatin for 24 hours at 37° C. in 5% CO2. The culture medium was then replaced with serum free Medium 200 overnight. […] Then, cells were harvested by trypsin-EDTA and counted using a hemocytometer.

HUVECs [2] = assay: Endothelial cell capillary-like tube formation assay; conditions: VEGF (10 ng/mL) alone; vs untreated HUVECs
Description: To examine the effect of the present synthetic peptide on in vitro angiogenesis, growth factor-reduced matrigel was pipetted into pre-chilled 24-well plates (150 μl matrigel per well) and polymerized for 45 min at 37° C. […] In this experiment, images were captured using a Cannon camera on Zeiss inverted microscope with magnification ×40 and tube length was quantified using Image analysis software (Image-Pro Plus). The control peptide as used in the present invention has the sequence of DLYRVR (SEQ ID NO: 10).

Substance	biological activity of the analogue relative to the 7-mer (summary statement of the description) (RPMI8226 cells)	effect on VEGF-induced proliferation of RPMI8226 cells (RPMI8226 cells)	further results
H-D[dL]YRVRS-OH [7-mer DL]	lose its biological activity	–	–
NH2-Ala-Leu-Tyr-Arg-Val-Arg-Ser-COOH (ALYRVRS; not fully specified (N-terminus, C-terminus); printed as NH2-Ala-Leu-Tyr-Arg-Val-Arg-Ser-COOH) [7-mer Da]	–	sustained part of the 7-mer activity	–
NH2-Asp-(D-Leu)-Tyr-Arg-Val-(D-Arg)-Ser-COOH (H-D[dL]YRV[dR]S-OH) [7-mer DR2]	lose its biological activity	–	–
NH2-Asp-Ala-Tyr-Arg-Val-Arg-Ser-COOH (DAYRVRS; not fully specified (N-terminus, C-terminus); printed as NH2-Asp-Ala-Tyr-Arg-Val-Arg-Ser-COOH) [7-mer La]	–	sustained part of the 7-mer activity	–
NH2-Asp-Leu-(D-Tyr)-Arg-Val-Arg-Ser-COOH (H-DL[dY]RVRS-OH) [7-mer DY]	lose its biological activity	–	Cell number (Fold) (HUVECs [1]; VEGF (10 ng/mL) + 25 μM peptide): 1.63 ± 0.077 Fold
NH2-Asp-Leu-Tyr-(D-Arg)-Val-Arg-Ser-COOH (H-DLY[dR]VRS-OH) [7-mer DR]	lose its biological activity	–	–
NH2-Asp-Leu-Tyr-Arg-Val-Gln-Ser-COOH (DLYRVQS; not fully specified (N-terminus, C-terminus); printed as NH2-Asp-Leu-Tyr-Arg-Val-Gln-Ser-COOH) [7-mer (R2→Q)]	–	could sustain 7-mer bioactivity, only partly	–
NH2-Asp-Val-Phe-Arg-Val-Arg-Thr-COOH (DVFRVRT; not fully specified (N-terminus, C-terminus); printed as NH2-Asp-Val-Phe-Arg-Val-Arg-Thr-COOH) [7-mer VFT]	relatively the same bioactivity	could sustain 7-mer bioactivity, only partly	–
NH2-Leu-Leu-Tyr-Arg-Val-Arg-Ser-COOH (LLYRVRS; not fully specified (N-terminus, C-terminus); printed as NH2-Leu-Leu-Tyr-Arg-Val-Arg-Ser-COOH) [7-mer (D→L)]	relatively the same bioactivity	could sustain 7-mer bioactivity, only partly	–
NH2-Phe-Leu-Tyr-Arg-Val-Arg-Ser-COOH (FLYRVRS; not fully specified (N-terminus, C-terminus); printed as NH2-Phe-Leu-Tyr-Arg-Val-Arg-Ser-COOH) [7-mer (D→F)]	relatively the same bioactivity	could sustain 7-mer bioactivity, only partly	–
NH2-Val-Leu-Tyr-Arg-Val-Arg-Ser-COOH (VLYRVRS; not fully specified (N-terminus, C-terminus); printed as NH2-Val-Leu-Tyr-Arg-Val-Arg-Ser-COOH) [7-mer (D→V)]	relatively the same bioactivity	could sustain 7-mer bioactivity, only partly	–
VEGF [reference compound]	–	–	Cell number (Fold) (HUVECs [1]; VEGF (10 ng/mL) alone): 1.62 Fold and 1.62 ± 0.070 Fold; Tube length (Fold) (HUVECs [2]): 3.43 ± 0.32 Fold
